This note sets out measurements from US20070155803A1, “Protease inhibitors” (ProZymex A/S, priority 2003, published 2007).

In general, IC50 refers to the concentration that inhibits the measured activity by half.

One series deals with T1, Human liver cathepsin L (Homo sapiens, UniProt P07711).
T1 construct: Human liver cathepsin L (Enzyme System Products, Catl-1); purchased Enzyme System Products Catl-1; host or cells: human liver
In words: Human liver cathepsin L assay. It is filed as biochemical. The protocol: Human Liver Catheosin L Assay
Using this assay, the selectivity of a compound of the invention for hDPP-I over human cathepsin L was determined, using a fluorogenic substrate.
Human liver cathepsin L (Enzyme System Products, Catl-1; 5 μL of a 1.61 μU/IμL stock) was solubilized in 2500 μL enzyme buffer. Prior to running experiment, 1 μL 0.5 M DTT/100 μL enzyme Solution was added. inoubated for 5 minutes on ice then added to reaction mixture.
Z-Phe-ARG-AFC*TFA (Enzyme System Products AF052; 15.6 mg) was dissolved in 1 mL DMSO, giving a 20 mM solution.
The assay was performed in 96-well plates. 50 μL assay buffer was added to the well followed by 25 μL reference inhibitor (cystatin, stock 1 mg/mL, diluted with assay buffer to give 25 nM in assay) or a compound of the invention (diluted with assay buffer to give 10 μM in the assay). Then 25 μL (80 nU) enzyme was added, and 1 min. later (at 37° C.) 100 μL substrate (10 μM in the assay) was added. The excitation wavelength was 400 nm, and the emission was measured at 505 nm for 10-20 minutes at 37° C. Each measurement was made in duplicate. In the software (SOFTmax Pro) used for data collection from the fluorometer (Molecular Devices: Gemini XS), it was ensured that the measured slopes were linear (R^2>0.99). Data were exported to GraphPad Prism and nonlinear regression was performed using the option Sigmoidal dose-response (variable slope).

Another series addresses T2, Aspergillus DPP-IV (UniProt Q2UH35).
T2 construct: Aspergillus DPP-IV (Enzyme System Products, SPE01)
T2 sequence (Q2UH35 1-771): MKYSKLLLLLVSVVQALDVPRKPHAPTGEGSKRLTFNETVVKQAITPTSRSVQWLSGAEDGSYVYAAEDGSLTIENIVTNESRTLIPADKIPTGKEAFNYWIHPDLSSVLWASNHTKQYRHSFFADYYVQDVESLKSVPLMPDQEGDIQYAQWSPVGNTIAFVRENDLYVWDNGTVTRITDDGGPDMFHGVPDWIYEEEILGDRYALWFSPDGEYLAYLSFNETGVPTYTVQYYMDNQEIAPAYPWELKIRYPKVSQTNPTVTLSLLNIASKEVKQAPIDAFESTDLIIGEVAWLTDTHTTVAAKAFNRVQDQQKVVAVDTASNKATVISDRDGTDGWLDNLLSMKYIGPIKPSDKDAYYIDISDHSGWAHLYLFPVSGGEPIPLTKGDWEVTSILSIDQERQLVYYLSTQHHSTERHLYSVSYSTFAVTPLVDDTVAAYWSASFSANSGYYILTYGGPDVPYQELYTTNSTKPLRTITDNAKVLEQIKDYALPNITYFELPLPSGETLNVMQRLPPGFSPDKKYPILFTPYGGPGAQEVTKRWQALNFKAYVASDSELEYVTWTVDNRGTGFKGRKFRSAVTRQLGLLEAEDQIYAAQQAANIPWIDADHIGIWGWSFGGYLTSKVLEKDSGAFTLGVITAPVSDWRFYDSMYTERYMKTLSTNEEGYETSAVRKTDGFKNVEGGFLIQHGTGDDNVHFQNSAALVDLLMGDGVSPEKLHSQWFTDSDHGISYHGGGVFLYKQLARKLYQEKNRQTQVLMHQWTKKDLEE
The experiment in a line: Aspergillus DPP-IV assay. The format is biochemical. The method, then: Using this assay, the selectivity of a compound of the invention for hDPP-I over Aspergillus DPP-IV was determined, using a fluorogenic substrate.
Aspergillus DPP-IV (Enzyme System Products, SPE01; 5 mU dissolved in 25 μL assay buffer, giving a stock with a concentration of a 0.2 mU/μL). Prior to running experiment, 5 μL of enzyme stock solution was diluted to 0.004 mU/μL with 245 μL buffer.
Gly-Pro-AFC*TFA (Enzyme System Products AF039; 10 mg) was dissolved in 1 mL DMSO, giving a 20 mM solution. Diluted further in buffer to. 1 mM.
The assay was performed in 96-well plates. 60 μL assay buffer was added to the well followed-by 10 μL 1% DMSO in assay buffer (control) or a compound of the invention (100 μM, corresponding to 10 μM in the assay). Incubated at 37° C., then 10 μL enzyme (corresponding to 0.04 mU in assay) was added, followed by 10 μL substrate (100 μM in the assay). The excitation wavelength was 400 nm, and the emission was measured at 505 nm for 10-20 minutes at 30° C. Each measurement was made in duplicate. In the software (SOFTmax Pro) used for data collection from the fluorometer (Molecular Devices: Gemini XS), it was ensured that the measured slopes were linear (R^2>0.99). Data were exported to GraphPad Prism and nonlinear regression was performed using the option Sigmoidal dose-response (variable slope).

Series [1] in a line: Metabolic stability in rat liver microsomes. The format is in vitro ADME. The note with it: pH 7.4; rat liver microsomes 0.3 mg/mL, test compound 1 μM, 37° C.; read-out: Metabolic stability (t1/2 in min.) Rat liver microsomes. The method, then: Assay for Determination of Metabolic Stability is Rat Liver Microsomes
The assay was performed at Cerep (Seattle) according to the protocol described by Kuhnz et. al. (Kuhnz, W., Gieschen, H. Drug Metab. Dispos., 26, 1120-1127), using rat liver microsomes (0.3 mg/mL), test compound (1 μM), NADP (1 mM), and G6P (5 mM), and G6PDHase (1 U/mL) with 0.6% methanol/0.6% acetonitrile in water. Incubation was performed at 37° C. in phosphate buffer (50 mM, pH=7.4), and the samples were analyzed for remaining product ion (selected reaction monitoring)by HPLC-MS/MS (Thermo Finnigan) at 0, 15, 30, 45 and 60 min. intervals.
(Liver microsomes are vesicles of endoplasmic reticulum, rich in cytochrome P450 enzymes.)

Square brackets hold non-standard residues; d marks the D form. Peptide text beside a SMILES is read from it. Phe(3-F) = N[C@@H](Cc1cccc(F)c1)C(=O)O; hPhe = N[C@@H](CCc1ccccc1)C(=O)O; Abu = CC[C@H](N)C(=O)O; azaGly = NNC(=O)O

T1 sequence (P07711 114-333): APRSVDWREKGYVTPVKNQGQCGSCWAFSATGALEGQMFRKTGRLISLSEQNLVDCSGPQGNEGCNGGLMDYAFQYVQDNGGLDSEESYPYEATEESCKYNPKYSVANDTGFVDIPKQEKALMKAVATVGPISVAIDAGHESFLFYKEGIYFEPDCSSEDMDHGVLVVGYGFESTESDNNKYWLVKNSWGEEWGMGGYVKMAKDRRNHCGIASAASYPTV

Turning to `CC[C@H](N)C(=O)NNC(=O)N[C@@H](CCc1ccccc1)C(=O)N[C@@H](Cc1cccc(F)c1)C(N)=O` [Example 11, 1-(2S-2-Aminobutanoyl)-4-[2S-N-[2S-3-(m-fluorophenyl)propan-2-yl-amide]-4-phenylbutan-2-yl-amide]semicarbazide] (H-[Abu][azaGly][hPhe][Phe(3-F)]-NH2), the “Inhibition of Cathepsin L (in words)” value on Human liver cathepsin L is listed as “does not inhibit”. The IC50 at Human liver cathepsin L (human liver cathepsin L, 10 μM cutoff, read-out: Secondary enzymatic screening (10 μM cutoff or IC50) Cathepsin L) is above 10 µM; at Aspergillus DPP-IV (Aspergillus DPP-IV, 10 μM cutoff, read-out: Secondary enzymatic screening (10 μM cutoff or IC50) DPP-IV), above 10 µM. In addition, on Aspergillus DPP-IV, the “Inhibition of DPP-IV (in words)” value is “does not inhibit”. The half-life at 1 μM in series [1] was determined as 23 min.
